Reference: ChEMBL document CHEMBL1201862, “PubChem BioAssay data set” (2004)
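In this assay, cells in 96-well plates receive the compound at five concentrations for 48 hours. Endpoints are linearly interpolated between the surrounding concentrations. GI50 is the concentration that inhibits growth by half.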 Activity calls are given as the source filed them. Cut-off read from the data, not from the text of the source: active = GI50 up to about 1.1 µM and inactive = higher.

Assays:
Assay in all cases: DTP human tumour cell line panel, 48 h
M14 = test system: M14
HL-60 = test system: HL-60
HOP-62 = test system: HOP-62
SK-MEL-5 = test system: SK-MEL-5
SK-MEL-28 = test system: SK-MEL-28
K562 = test system: K562
SK-MEL-2 = test system: SK-MEL-2
Hs-578T = test system: Hs-578T
SF-295 = test system: SF-295
MOLT-4 = test system: MOLT-4
HCT-15 = test system: HCT-15
SK-OV-3 = test system: SK-OV-3
SN12C = test system: SN12C
NCI/ADR-RES = test system: NCI/ADR-RES
HT-29 = test system: HT-29
SW-620 = test system: SW-620
786-0 = test system: 786-0
EKVX = test system: EKVX
MDA-MB-231 = test system: MDA-MB-231
DU-145 = test system: DU-145

| Compound | GI50 (M14) | GI50 (HL-60) | GI50 (HOP-62) | GI50 (SK-MEL-5) | GI50 (SK-MEL-28) | GI50 (K562) | GI50 (SK-MEL-2) | GI50 (Hs-578T) | GI50 (SF-295) | GI50 (MOLT-4) | GI50 (HCT-15) [µM] | GI50 (SK-OV-3) | GI50 (SN12C) | GI50 (NCI/ADR-RES) | GI50 (HT-29) | GI50 (SW-620) | GI50 (786-0) | GI50 (EKVX) | GI50 (MDA-MB-231) | GI50 (DU-145) |
| --- | --- | --- | --- | --- | --- | --- | --- | --- | --- | --- | --- | --- | --- | --- | --- | --- | --- | --- | --- | --- |
| NCc1nnn(Cc2ccccc2)c1N | > 100 µM (inactive) | > 100 µM (inactive) | > 100 µM (inactive) | > 100 µM (inactive) | > 100 µM (inactive) | > 100 µM (inactive) | > 100 µM (inactive) | > 100 µM (inactive) | > 100 µM (inactive) | > 100 µM (inactive) | > 100 | > 100 µM (inactive) | > 100 µM (inactive) | > 100 µM (inactive) | > 100 µM (inactive) | > 100 µM (inactive) | > 100 µM (inactive) | > 100 µM (inactive) | > 100 µM (inactive) | > 100 µM (inactive) |
| Cc1c(C)c2c(c(N)c1C#N)C(=O)N(Cc1ccc(S(N)(=O)=O)cc1)C2=O | 25.9 µM (inactive) | > 100 µM (inactive) | 4.07 µM (inactive) | > 100 µM (inactive) | > 100 µM (inactive) | > 100 µM (inactive) | > 50.1 µM (inactive) | > 46.3 µM (inactive) | 21.5 µM (inactive) | > 100 µM (inactive) | > 72.9 | 4.43 µM (inactive) | > 53.8 µM (inactive) | > 57.9 µM (inactive) | > 100 µM (inactive) | > 100 µM (inactive) | 16.8 µM (inactive) | > 45 µM (inactive) | 19.7 µM (inactive) | 32.1 µM (inactive) |
| CC(C)OP(=O)(OC(C)C)/C(C#N)=C/c1ccco1 | > 100 µM (inactive) | > 100 µM (inactive) | > 100 µM (inactive) | > 100 µM (inactive) | > 100 µM (inactive) | > 100 µM (inactive) | > 100 µM (inactive) | > 100 µM (inactive) | > 100 µM (inactive) | > 100 µM (inactive) | > 100 | > 100 µM (inactive) | > 100 µM (inactive) | > 100 µM (inactive) | > 100 µM (inactive) | > 100 µM (inactive) | > 100 µM (inactive) | > 100 µM (inactive) | > 100 µM (inactive) | > 100 µM (inactive) |
| Nn1c(Cc2ccc(Cl)cc2)n[nH]c1=O | > 100 µM (inactive) | > 100 µM (inactive) | 72.1 µM (inactive) | > 100 µM (inactive) | > 100 µM (inactive) | > 100 µM (inactive) | > 100 µM (inactive) | > 100 µM (inactive) | > 100 µM (inactive) | > 100 µM (inactive) | > 100 | > 100 µM (inactive) | > 100 µM (inactive) | > 100 µM (inactive) | > 100 µM (inactive) | > 100 µM (inactive) | > 100 µM (inactive) | > 100 µM (inactive) | > 100 µM (inactive) | > 100 µM (inactive) |
| COC(=O)c1ccccc1C1CN=NC12Cc1c(C)cc(C)cc1C2=O (centres undefined) | > 100 µM (inactive) | > 100 µM (inactive) | > 100 µM (inactive) | > 100 µM (inactive) | > 100 µM (inactive) | > 100 µM (inactive) | > 100 µM (inactive) | > 100 µM (inactive) | > 100 µM (inactive) | > 100 µM (inactive) | > 100 | > 100 µM (inactive) | > 100 µM (inactive) | > 100 µM (inactive) | > 100 µM (inactive) | > 100 µM (inactive) | > 100 µM (inactive) | > 100 µM (inactive) | 45.4 µM (inactive) | > 100 µM (inactive) |
| CCOC(=O)/C=C\C(C#N)(C#N)/N=C/c1ccsc1 | 3.08 µM (inactive) | 2 µM (inactive) | 19.4 µM (inactive) | 20 µM (inactive) | 2.38 µM (inactive) | 3.13 µM (inactive) | 17.7 µM (inactive) | 19.5 µM (inactive) | 29.3 µM (inactive) | 1.21 µM (inactive) | 2.96 | 20.8 µM (inactive) | 18.2 µM (inactive) | 3.84 µM (inactive) | 11.1 µM (inactive) | 1.62 µM (inactive) | 2.24 µM (inactive) | 16.5 µM (inactive) | 16.3 µM (inactive) | 16.5 µM (inactive) |
| O=C(NNCc1ccco1)c1cc2ccccc2[nH]1 | > 94 µM (inactive) | > 29.1 µM (inactive) | > 52.6 µM (inactive) | > 100 µM (inactive) | > 100 µM (inactive) | > 100 µM (inactive) | > 100 µM (inactive) | 14.9 µM (inactive) | 91.8 µM (inactive) | > 100 µM (inactive) | > 87.5 | > 56 µM (inactive) | > 61 µM (inactive) | > 52.4 µM (inactive) | > 86.9 µM (inactive) | > 100 µM (inactive) | > 51.5 µM (inactive) | 61.5 µM (inactive) | > 100 µM (inactive) | > 100 µM (inactive) |
| O=C1C=C(Nc2ccccc2C(=O)CC(=O)C(=O)Nc2cccc(C(F)(F)F)c2)c2ccccc2C1=O | 16.6 µM (inactive) | 4.94 µM (inactive) | 40 µM (inactive) | 15.8 µM (inactive) | 24.1 µM (inactive) | 8.32 µM (inactive) | 16.8 µM (inactive) | 21 µM (inactive) | 21.3 µM (inactive) | 4.83 µM (inactive) | 19.5 | 61.4 µM (inactive) | 17.1 µM (inactive) | 13.5 µM (inactive) | 57.4 µM (inactive) | 27.6 µM (inactive) | 25.8 µM (inactive) | 37.8 µM (inactive) | 20 µM (inactive) | 78 µM (inactive) |
| COc1cccc(-c2nc(O)c3ccccc3n2)c1 | 50.2 µM (inactive) | > 100 µM (inactive) | 17.5 µM (inactive) | 24.3 µM (inactive) | 28.1 µM (inactive) | 38.5 µM (inactive) | 39.5 µM (inactive) | 19.6 µM (inactive) | 32.1 µM (inactive) | 86.5 µM (inactive) | 18 | 19.7 µM (inactive) | 33.9 µM (inactive) | 18.1 µM (inactive) | 21.2 µM (inactive) | 32.9 µM (inactive) | 14.9 µM (inactive) | 26.8 µM (inactive) | 25.3 µM (inactive) | 29.1 µM (inactive) |
| CC[C@H]1C=CCC[C@@]2(C[C@@H]3CC[C@@H]4[C@H](C(=O)OCCCCCCCCCCCCCCCC(=O)O)[C@]5(CCC[C@@H](C)O5)NC(=[N+]34)N2)O1 [CRAMBESCIDIN 657] | 0.1 µM (active) | 0.151 µM (active) | 0.367 µM (active) | 0.104 µM (active) | 0.743 µM (active) | 0.121 µM (active) | 0.127 µM (active) | 0.571 µM (active) | 0.163 µM (active) | 0.109 µM (active) | 0.525 | 5.38 µM (inactive) | 0.418 µM (active) | 4.61 µM (inactive) | 0.116 µM (active) | 0.189 µM (active) | 0.0964 µM (active) | 1.39 µM (inactive) | 0.281 µM (active) | 0.191 µM (active) |
| COC(=O)c1c(O)ccc2c1c1c(n2Cc2cc(OC)cc(OC)c2)C(=O)c2ccccc2C1=O | 8.13 µM (inactive) | 7.5 µM (inactive) | 9.29 µM (inactive) | 8.83 µM (inactive) | 13.7 µM (inactive) | 5.28 µM (inactive) | 10.9 µM (inactive) | 7.55 µM (inactive) | 11.4 µM (inactive) | 4.42 µM (inactive) | 3.93 | 6.52 µM (inactive) | 6.03 µM (inactive) | 4.06 µM (inactive) | 2.44 µM (inactive) | 9.51 µM (inactive) | 7.74 µM (inactive) | 11.6 µM (inactive) | 7.13 µM (inactive) | 21 µM (inactive) |
| N#CCC(=O)Nn1c(CC#N)nnc1Cc1ccccc1 | > 100 µM (inactive) | > 100 µM (inactive) | > 100 µM (inactive) | > 100 µM (inactive) | > 100 µM (inactive) | > 100 µM (inactive) | > 100 µM (inactive) | > 100 µM (inactive) | > 100 µM (inactive) | > 100 µM (inactive) | > 100 | – | > 10 µM (inactive) | > 100 µM (inactive) | > 100 µM (inactive) | > 100 µM (inactive) | > 100 µM (inactive) | – | > 100 µM (inactive) | > 100 µM (inactive) |
| CN1CCc2c(sc3nc(Nc4ccccc4)n(N)c(=O)c23)C1 | 24.1 µM (inactive) | 19.8 µM (inactive) | > 100 µM (inactive) | 77.3 µM (inactive) | – | 37.1 µM (inactive) | > 100 µM (inactive) | > 100 µM (inactive) | 63.1 µM (inactive) | 65 µM (inactive) | > 100 | – | > 100 µM (inactive) | > 100 µM (inactive) | 43.8 µM (inactive) | – | > 100 µM (inactive) | > 100 µM (inactive) | > 100 µM (inactive) | > 100 µM (inactive) |
| COc1ccc2c(c1)C(N)=C(c1ccccc1)C2=O | > 100 µM (inactive) | > 100 µM (inactive) | > 100 µM (inactive) | 49.1 µM (inactive) | > 100 µM (inactive) | – | > 100 µM (inactive) | 11.4 µM (inactive) | 97.1 µM (inactive) | 58.5 µM (inactive) | > 100 | 49 µM (inactive) | 99.3 µM (inactive) | 36.6 µM (inactive) | > 100 µM (inactive) | > 100 µM (inactive) | 80.4 µM (inactive) | > 100 µM (inactive) | 51.3 µM (inactive) | > 100 µM (inactive) |
